Laboratory results as given in publication PMC7046186, “Targeting tRNA-synthetase interactions towards novel therapeutic discovery against eukaryotic pathogens” (PLoS Neglected Tropical Diseases, 2020).

Experiments:
Format in all cases: biochemical
human AlaRS [1] = molecular target: T1, human AlaRS (Homo sapiens, UniProt P49588); experiment: ATP/PPi exchange; settings: 2 mM ATP, 90 μM alanine, 2 mM [32P]-PPi, 10 mM Mg2+, pH 7.2, 37 °C
T1 construct: gene AARS1; pET21a, C-terminal 6x-His tag; expressed in E. coli Rosetta(DE3)
T1 sequence (P49588 1-968): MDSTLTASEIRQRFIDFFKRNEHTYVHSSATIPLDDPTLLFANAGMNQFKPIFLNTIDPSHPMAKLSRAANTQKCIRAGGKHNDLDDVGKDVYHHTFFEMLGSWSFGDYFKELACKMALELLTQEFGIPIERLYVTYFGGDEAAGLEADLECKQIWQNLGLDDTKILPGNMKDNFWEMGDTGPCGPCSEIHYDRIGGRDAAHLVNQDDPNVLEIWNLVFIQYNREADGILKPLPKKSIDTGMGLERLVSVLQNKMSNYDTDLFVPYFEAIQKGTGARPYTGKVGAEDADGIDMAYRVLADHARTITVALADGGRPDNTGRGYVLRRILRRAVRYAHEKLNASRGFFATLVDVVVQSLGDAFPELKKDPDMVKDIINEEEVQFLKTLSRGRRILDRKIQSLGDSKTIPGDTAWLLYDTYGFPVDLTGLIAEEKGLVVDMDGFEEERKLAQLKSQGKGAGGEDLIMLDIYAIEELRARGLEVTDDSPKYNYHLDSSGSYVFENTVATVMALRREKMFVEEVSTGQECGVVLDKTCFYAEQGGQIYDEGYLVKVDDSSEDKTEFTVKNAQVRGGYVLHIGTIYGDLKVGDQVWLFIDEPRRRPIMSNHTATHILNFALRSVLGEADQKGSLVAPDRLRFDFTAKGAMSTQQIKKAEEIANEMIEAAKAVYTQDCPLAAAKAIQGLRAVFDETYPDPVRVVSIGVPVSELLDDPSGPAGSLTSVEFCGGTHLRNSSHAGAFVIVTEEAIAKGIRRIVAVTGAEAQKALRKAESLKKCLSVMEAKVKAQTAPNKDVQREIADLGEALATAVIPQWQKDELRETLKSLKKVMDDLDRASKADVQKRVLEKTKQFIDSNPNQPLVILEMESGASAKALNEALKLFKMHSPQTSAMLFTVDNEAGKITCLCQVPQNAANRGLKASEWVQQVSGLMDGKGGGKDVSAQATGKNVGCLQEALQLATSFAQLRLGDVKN

Lm AlaRS = molecular target: T2, Lm AlaRS (Leishmania major, UniProt Q4QBJ3); experiment: ATP/PPi exchange; settings: 2 mM ATP, 90 μM alanine, 2 mM [32P]-PPi, 10 mM Mg2+, pH 7.2, 37 °C
T2 construct: gene LMJF_22_1540; codon-optimised synthetic gene in pTYB2; C-terminal intein tag cleaved off; expressed in E. coli BL21(DE3)
T2 sequence (Q4QBJ3 1-962): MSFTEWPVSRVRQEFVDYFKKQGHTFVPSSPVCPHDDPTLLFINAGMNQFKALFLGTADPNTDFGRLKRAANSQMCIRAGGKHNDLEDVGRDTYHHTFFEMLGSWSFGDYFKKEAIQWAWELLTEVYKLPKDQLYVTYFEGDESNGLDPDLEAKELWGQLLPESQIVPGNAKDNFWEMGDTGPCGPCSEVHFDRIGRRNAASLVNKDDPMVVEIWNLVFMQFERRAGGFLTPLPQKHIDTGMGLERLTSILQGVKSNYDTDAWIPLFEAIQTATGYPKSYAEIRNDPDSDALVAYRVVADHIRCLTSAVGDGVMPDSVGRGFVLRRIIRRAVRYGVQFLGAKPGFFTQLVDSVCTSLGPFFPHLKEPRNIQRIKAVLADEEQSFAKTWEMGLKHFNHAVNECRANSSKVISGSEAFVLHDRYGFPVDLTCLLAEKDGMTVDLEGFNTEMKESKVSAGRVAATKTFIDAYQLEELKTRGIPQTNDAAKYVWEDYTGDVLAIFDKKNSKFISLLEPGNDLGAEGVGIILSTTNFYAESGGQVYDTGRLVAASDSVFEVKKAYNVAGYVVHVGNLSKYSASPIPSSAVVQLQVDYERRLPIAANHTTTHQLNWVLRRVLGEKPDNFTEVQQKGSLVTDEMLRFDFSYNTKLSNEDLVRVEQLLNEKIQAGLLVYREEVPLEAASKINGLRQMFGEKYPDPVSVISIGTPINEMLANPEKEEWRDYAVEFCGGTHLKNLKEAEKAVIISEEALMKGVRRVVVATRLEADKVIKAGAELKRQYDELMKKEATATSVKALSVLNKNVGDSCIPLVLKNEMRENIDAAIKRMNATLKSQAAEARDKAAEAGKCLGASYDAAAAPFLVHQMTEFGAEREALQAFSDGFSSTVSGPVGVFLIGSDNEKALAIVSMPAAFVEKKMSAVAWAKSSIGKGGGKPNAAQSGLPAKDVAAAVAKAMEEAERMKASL

Tc AlaRS = molecular target: T3, Tc AlaRS (Trypanosoma cruzi, UniProt Q4D747); experiment: aminoacylation of Tc tRNA-Ala with […]-Ala; settings: labelled compound, ATP
T3 construct: gene Tc00.1047053506863.10; codon-optimised synthetic gene in pET21b; C-terminal 6x-His tag; expressed in E. coli XJb(DE3)
T3 sequence (Q4D747 1-959): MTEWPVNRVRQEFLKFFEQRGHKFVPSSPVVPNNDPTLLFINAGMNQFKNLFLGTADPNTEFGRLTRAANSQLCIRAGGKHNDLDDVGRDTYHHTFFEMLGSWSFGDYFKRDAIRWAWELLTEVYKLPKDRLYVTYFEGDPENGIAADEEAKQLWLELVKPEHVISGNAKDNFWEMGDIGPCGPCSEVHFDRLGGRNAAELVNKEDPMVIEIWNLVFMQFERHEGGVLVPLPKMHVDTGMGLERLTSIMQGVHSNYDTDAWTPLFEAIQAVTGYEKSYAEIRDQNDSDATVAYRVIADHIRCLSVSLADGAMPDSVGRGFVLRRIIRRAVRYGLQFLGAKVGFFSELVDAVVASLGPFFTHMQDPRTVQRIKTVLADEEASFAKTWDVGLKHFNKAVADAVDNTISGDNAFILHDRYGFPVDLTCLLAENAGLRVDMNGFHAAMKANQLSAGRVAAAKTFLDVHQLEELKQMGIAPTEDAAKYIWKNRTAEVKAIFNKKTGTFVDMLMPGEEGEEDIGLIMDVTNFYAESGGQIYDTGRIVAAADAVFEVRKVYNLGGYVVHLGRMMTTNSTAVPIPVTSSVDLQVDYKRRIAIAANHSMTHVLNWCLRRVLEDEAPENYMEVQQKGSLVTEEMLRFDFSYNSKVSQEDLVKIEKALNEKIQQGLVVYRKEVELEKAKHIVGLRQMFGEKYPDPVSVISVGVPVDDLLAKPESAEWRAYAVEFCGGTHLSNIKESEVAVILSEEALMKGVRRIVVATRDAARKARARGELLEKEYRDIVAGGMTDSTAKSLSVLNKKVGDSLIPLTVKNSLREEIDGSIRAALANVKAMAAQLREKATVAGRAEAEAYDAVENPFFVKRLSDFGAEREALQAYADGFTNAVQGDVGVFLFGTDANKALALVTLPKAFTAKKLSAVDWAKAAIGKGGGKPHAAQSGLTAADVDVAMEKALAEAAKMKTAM

human AlaRS [2] = molecular target: T1, human AlaRS; experiment: ATP/PPi exchange (amino acid activation); settings: 2 mM ATP, 2 mM [32P]-PPi, 10 mM Mg2+, pH 7.2, 37 °C, 90 μM alanine
Lm ThrRS = molecular target: T4, Lm ThrRS (Leishmania major, UniProt E9AEW4); experiment: aminoacylation of Lm tRNA-Thr with […]-Thr; settings: labelled compound, ATP
T4 construct: gene LMJF_35_1410; codon-optimised synthetic gene in pTYB2; C-terminal intein tag cleaved off; expressed in E. coli BL21(DE3)
T4 sequence (E9AEW4 1-787): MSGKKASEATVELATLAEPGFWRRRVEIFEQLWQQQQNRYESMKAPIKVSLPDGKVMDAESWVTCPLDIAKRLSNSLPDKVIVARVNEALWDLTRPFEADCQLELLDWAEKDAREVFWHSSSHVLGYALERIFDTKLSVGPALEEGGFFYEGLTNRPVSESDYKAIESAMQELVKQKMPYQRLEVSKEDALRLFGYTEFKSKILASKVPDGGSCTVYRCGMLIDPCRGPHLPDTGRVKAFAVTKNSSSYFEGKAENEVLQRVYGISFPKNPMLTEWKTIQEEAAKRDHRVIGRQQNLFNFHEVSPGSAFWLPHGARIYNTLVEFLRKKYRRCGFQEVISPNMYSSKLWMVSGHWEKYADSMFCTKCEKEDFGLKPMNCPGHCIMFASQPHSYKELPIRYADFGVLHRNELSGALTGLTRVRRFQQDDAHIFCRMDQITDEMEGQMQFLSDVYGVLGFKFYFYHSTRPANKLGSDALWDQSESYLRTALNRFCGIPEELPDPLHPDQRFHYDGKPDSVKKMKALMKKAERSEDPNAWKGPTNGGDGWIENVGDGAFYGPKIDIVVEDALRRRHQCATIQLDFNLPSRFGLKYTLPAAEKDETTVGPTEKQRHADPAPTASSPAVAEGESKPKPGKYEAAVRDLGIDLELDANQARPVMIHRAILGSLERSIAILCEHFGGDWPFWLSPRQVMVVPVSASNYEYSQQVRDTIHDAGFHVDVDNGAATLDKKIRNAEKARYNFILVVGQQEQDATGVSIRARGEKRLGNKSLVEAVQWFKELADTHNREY

Nc1ncnc2c1ncn2[C@@H]1O[C@H](COP(=O)(O)OP(=O)(O)OP(=O)(O)O)[C@@H](O)[C@H]1O [ATP]
ATP/PPi exchange (human AlaRS [1]): we used pyrophosphate exchange to monitor ATP-dependent amino acid activation
ATP/PPi exchange (Lm AlaRS): we used pyrophosphate exchange to monitor ATP-dependent amino acid activation

C[C@H](N)C(=O)O [alanine]
aminoacylation of Tc tRNA-Ala with [14C]-Ala (Tc AlaRS): aminoacylation inhibition assay using Tc AlaRS and tRNA^Ala
ATP/PPi exchange (amino acid activation) (human AlaRS [2]): Treatment of the human AlaRS enzyme with the MNP inhibitors had no effect on amino acid activation

C[C@@H](O)[C@H](N)C(=O)O [threonine]
aminoacylation of Lm tRNA-Thr with [14C]-Thr (Lm ThrRS): re-screened against Lm Threonyl-tRNA synthetase (ThrRS) and tRNA^Thr aminoacylation
